Reference: patent US10596137B2, “Medium chain fatty acids and their triglycerides for treating anxiety” (NESTEC S.A., priority 2015, dated 2020)
Entries after “also recorded” stand apart in the source; their conditions may differ.

Assay: Temporal dynamics of plasma and brain ketones after octanoic or decanoic acid ingestion
Format: in vivo, rat
Details: after ingestion (oral gavage); for plasma and brain β-HB (ketone) levels: kinetics
Experimental: Blood was drawn from the tail vein 7 days after initiation of treatment and trunk blood was collected during sacrifice. Blood was centrifuged and plasma samples were analysed for beta-hydroxybutyrate using a colorimetric kit (Cayman, US). For measurement of brain ketones, sample preparation involved liquid/liquid extraction of 50 μl brain tissue supernatant (pH 2), and extract derivatization with MSTFA (silylation). Analysis of BHB was performed via GC/MS, int. Standard 13C2-3-OH-But, m/z 233 (3-OH-But), m/z 118 (13C2-3-OH-But), with a calibration of 2-24 μg/ml (water); LOQ: 2 μg/ml, LOD: 0.7 μg/ml.
Control rats received oral gavage of sunflower oil, as described above. MCT8 and MCT10 received oral gavage of octanoic acid or decanoic acid, respectively. Rats were sacrificed and trunk blood, portal vein blood and brain, pancreas and liver were collected as indicated.

SMILES | plasma and brain β-HB (ketone) levels | plasma ketone levels (octanoic compared to decanoic acid)
CCCCCCCCCC(=O)O [decanoic acid] | longer-lasting increase; also recorded: prolonged increase | –
CCCCCCCC(=O)O [octanoic acid] | more rapid increase; also recorded: rapid increase | increased more rapidly
